Article PMC6469291, “2-Nitroimidazole-Furanoside Derivatives for Hypoxia Imaging—Investigation of Nucleoside Transporter Interaction, ^18F-Labeling and Preclinical PET Imaging” (Pharmaceuticals, 2019)

What was measured:
[1] = tested on: CT26 colon carcinoma; assay: PET hypoxia imaging of CT26 colon carcinoma bearing mice; format: in vivo, BALB/c mice; conditions: for tumor uptake: hypoxic CT26 tumor tissue; for tumor uptake / muscle uptake: PET; for tumor-to-muscle ratio (TMR): i.v., CT26 tumor vs. shoulder muscle, mean ± SD; for muscle uptake: normoxic muscle tissue
Protocol: The above-described CT26 mouse colon carcinoma cells were subcutaneously inoculated in the right shoulder of female BALB/c mice (1 × 10^6 cells in phosphate-buffered saline, PBS). Subsequently, the carcinomas were allowed to grow for a period of 13 days, reaching approximately 0.3 cm3. […] All animal experiments were conducted according to guidelines for the use and care of laboratory research animals under the German Animal Protection Law, and approved by local authorities (Regierungspräsidium Tübingen). […] All experiments were done using medical air as carrier gas for isoflurane anesthesia (1.5% isoflurane during PET scans, flow rate 0.4 L/min), including tracer injections, with a specialized vaporizer ([…], Louisville, KY, USA). Subsequent to the tracer injections, the animals were allowed to freely move in their home cages for an uptake period of 55 min, thus, breathing room air. […] PET scans were performed with a Siemens Inveon dedicated PET (DPET, Siemens Healthcare, Knoxville, TN, USA). PET scans were then reconstructed with a two-dimensional ordered subset expectation maximization algorithm (OSEM2D with 16 subsets and 4 iterations). Image zoom was set to 1 and matrix size to 128 × 128 yielding a final PET image spatial resolution of 0.79 × 0.79 × 0.80 mm3. PET data were manually corrected for radioactive decay of ^18F. PET image analysis was performed using the PMOD 3.2_base 64 image viewing tool (PMOD Technologies, Zürich, Switzerland). […] Finally, PET data were expressed as percent injected dose per cubic-centimeter (%ID/cc) or tumor-to-muscle ratio (TMR).

[2] = biological target: T1, hCNT1 (SLC28A1) (Homo sapiens, UniProt O00337); assay: Inhibition of [^3H]uridine uptake in yeast cells producing recombinant hCNT1; format: cell-based
T1 construct: expressed in transfected cells; host or cells: Saccharomyces cerevisiae
T1 sequence (O00337 1-649): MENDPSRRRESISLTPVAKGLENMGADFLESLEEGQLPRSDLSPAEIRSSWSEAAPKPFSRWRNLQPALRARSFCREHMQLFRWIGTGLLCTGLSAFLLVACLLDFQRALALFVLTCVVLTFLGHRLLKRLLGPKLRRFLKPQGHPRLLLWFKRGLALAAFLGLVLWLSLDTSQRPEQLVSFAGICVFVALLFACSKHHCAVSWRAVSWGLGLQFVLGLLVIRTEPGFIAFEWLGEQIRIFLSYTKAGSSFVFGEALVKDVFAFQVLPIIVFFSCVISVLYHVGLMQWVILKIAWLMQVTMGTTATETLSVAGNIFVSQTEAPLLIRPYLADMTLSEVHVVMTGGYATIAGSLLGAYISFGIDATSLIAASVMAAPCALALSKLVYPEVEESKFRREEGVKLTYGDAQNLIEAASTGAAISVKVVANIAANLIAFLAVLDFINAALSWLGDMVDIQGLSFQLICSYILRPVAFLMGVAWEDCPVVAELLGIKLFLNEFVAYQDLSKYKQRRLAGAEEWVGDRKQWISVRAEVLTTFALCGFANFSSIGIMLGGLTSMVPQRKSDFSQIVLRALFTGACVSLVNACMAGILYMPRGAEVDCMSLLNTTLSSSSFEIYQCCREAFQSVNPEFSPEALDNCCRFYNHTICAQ
Protocol: (§1) The interaction of 2-nitroimidazole sugars with nucleoside transporters was determined by ability of the 2-nitroimidazole sugars to inhibit [^3H]uridine uptake in yeast cells producing recombinant human nucleoside transporters and results expressed as IC50 values.
(§2) Saccharomyces cerevisiae yeast was separately transformed with plasmids (pYPhENT1, pYPhENT2, pYPhCNT1, pYPhCNT2, or pYPhCNT3) encoding hNTs (hENT1, hENT2, hCNT1, hCNT2, or hCNT3, respectively) as described elsewhere. Uptake of 1 µmol/L [^3H]uridine (Moravek Biochemicals) into yeast was measured as previously described using a semi-automated cell harvester (Micro96 HARVESTER; Skatron Instruments, Tranby, Norway). Yeast was incubated at room temperature with 1 µmol/L [^3H]uridine in yeast growth media (pH 7.4) in the presence or absence (uninhibited controls) of graded concentrations (0–3 mM) of test compounds. The following compounds were used for transporter experiments: FAZA, β-FAZA, α-FAZDR, β-FAZDR. Uridine self-inhibition was used to determine maximum inhibition of mediated transport. Concentration–effect curves were subjected to nonlinear regression analysis using Prism software (version 4.03; GraphPad Software Inc.) to obtain the concentration of test compound that inhibited uridine uptake by 50%, relative to that of untreated cells (IC50 values). Each IC50 value determination was conducted with nine concentrations and four replicates per concentration and experiments were repeated two to three times.

[3] = biological target: T2, hENT2 (SLC29A2) (Homo sapiens, UniProt Q14542); assay: Inhibition of [^3H]uridine uptake in yeast cells producing recombinant hENT2; format: cell-based
T2 construct: expressed in transfected cells; host or cells: Saccharomyces cerevisiae
T2 sequence (Q14542 1-456): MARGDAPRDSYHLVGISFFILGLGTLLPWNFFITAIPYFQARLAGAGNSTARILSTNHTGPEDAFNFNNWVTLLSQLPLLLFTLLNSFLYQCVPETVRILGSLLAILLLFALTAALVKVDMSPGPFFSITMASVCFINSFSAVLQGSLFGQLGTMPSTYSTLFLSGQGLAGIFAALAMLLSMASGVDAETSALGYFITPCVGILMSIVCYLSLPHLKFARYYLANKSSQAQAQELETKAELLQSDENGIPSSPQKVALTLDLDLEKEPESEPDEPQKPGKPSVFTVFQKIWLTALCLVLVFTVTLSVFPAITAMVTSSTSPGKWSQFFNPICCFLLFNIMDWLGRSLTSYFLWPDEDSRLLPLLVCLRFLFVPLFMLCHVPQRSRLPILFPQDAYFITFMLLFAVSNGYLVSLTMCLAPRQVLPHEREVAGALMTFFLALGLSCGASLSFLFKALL
Protocol: as §1, §2

[4] = biological target: T3, hCNT3 (SLC28A3) (Homo sapiens, UniProt Q9HAS3); assay: Inhibition of [^3H]uridine uptake in yeast cells producing recombinant hCNT3; format: cell-based
T3 construct: expressed in transfected cells; host or cells: Saccharomyces cerevisiae
T3 sequence (Q9HAS3 1-691): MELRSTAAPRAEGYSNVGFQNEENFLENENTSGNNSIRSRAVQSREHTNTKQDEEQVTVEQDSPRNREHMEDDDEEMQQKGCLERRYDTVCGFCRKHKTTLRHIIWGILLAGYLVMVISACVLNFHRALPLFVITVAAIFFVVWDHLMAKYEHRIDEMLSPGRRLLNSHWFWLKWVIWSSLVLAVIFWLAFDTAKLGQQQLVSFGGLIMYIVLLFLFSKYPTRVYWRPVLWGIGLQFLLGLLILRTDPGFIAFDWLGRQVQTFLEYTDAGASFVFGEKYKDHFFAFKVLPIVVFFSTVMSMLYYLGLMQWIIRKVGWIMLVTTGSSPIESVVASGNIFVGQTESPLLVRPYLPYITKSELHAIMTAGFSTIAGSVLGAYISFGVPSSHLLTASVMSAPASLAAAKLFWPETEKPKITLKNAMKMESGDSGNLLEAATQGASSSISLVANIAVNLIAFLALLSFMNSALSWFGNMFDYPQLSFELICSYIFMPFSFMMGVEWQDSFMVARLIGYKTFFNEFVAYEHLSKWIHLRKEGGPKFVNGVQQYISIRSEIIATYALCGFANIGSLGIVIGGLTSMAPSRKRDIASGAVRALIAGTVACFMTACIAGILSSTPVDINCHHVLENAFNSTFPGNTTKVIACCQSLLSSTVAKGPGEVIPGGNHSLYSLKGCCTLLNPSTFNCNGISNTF
Protocol: as §1, §2

tumor uptake ([1]; 1 h p.i.) | tumor-to-muscle ratio (TMR) ([1]; 1 h p.i.) | muscle uptake ([1]; 1 h p.i.) | muscle clearance ([1]; 2 h p.i. relative to 1 h p.i.) | tumor clearance ([1]; 2 h p.i. relative to 1 h p.i.) | clearance ratio for tumor relative to muscle tissue ([1]; 3 h p.i.) | muscle clearance ([1]; 3 h p.i. relative to 1 h p.i.) | tumor clearance ([1]; 3 h p.i. relative to 1 h p.i.) | tumor uptake ([1]; 3 h p.i.) | muscle uptake ([1]; 3 h p.i.) | IC50 [2] | IC50 [3] | IC50 [4] | tumor uptake ([1]; 2 h p.i.) | tumor-to-muscle ratio (TMR) ([1]; 2 h p.i.) | muscle uptake ([1]; 2 h p.i.) | tumor-to-muscle ratio (TMR) ([1]; 3 h p.i.) | Compound
1.90 ± 0.48 %ID/cc | 1.93 ± 0.39 | 1.01 ± 0.32 %ID/cc | 53.3 ± 8.3% | 34.2 ± 7.5% | 0.79 ± 0.12 | 70.3 ± 5.5% | 55.3 ± 8.3% | 0.88 ± 0.42 %ID/cc | 0.31 ± 0.15 %ID/cc |  |  |  |  |  |  |  | O=[N+]([O-])c1nccn1[C@@H]1C[C@H](O)[C@@H](C[18F])O1 [α-[^18F]FAZDR, 1′-α-[2′,5′-dideoxy-5′-[^18F]fluoro-D-ribofuranosyl]-2-nitroimidazole]
 |  |  |  |  |  |  |  |  |  | 269 ± 4 µM | > 3000 µM | 124 ± 33 µM |  |  |  |  | O=[N+]([O-])c1nccn1C1CC(O)C(CF)O1 (stereo not drawn) [β-FAZDR]
0.40 ± 0.07 %ID/cc | 2.52 ± 0.94 | 0.17 ± 0.03 %ID/cc | 58.4 ± 8.2% | 56.6 ± 6.8% | 0.95 ± 0.02 | 75.3 ± 6.4% | 71.5 ± 7.0% | 0.12 ± 0.05 %ID/cc | 0.04 ± 0.01 %ID/cc |  |  |  | 0.18 ± 0.06 %ID/cc | 2.65 ± 0.87 | 0.07 ± 0.01 %ID/cc | 2.91 ± 1.01 | O=[N+]([O-])c1nccn1[C@H]1C[C@H](O)[C@@H](C[18F])O1 [β-[^18F]FAZDR, [^18F]fluoro-azomycin-β-deoxyriboside]
